Measurements taken from US20260242768A1, “ACETYL-COENZYME A CARBOXYLASE MUTANTS” (CIBUS US LLC, priority 2023, published 2026).
One block for each substance: values may come before it.

Experiments:
[1] = system: rice (Oryza sativa) plastidal ACCase; test: Clethodim tolerance of rice ACCase mutations, yeast complementation assay (Examples 1-3); type: cell-based; details: for clethodim tolerance: ACCase mutation tested with the herbicide clethodim; for clethodim tolerance of combined mutations compared with single mutation(s) or parent mutant: double/triple mutants vs single mutations; for effect on clethodim tolerance of the single D2078G mutation: mutation added to D2078G
Description: Joachimiak M. et al Proc Natl Acad Sci U.S.A. 1997 Sep. 2; 94 (18): 9990-5 and WO/2013/074524 and WO/2013/074524 each describe methods to complement a yeast (Saccharomyces cerevisiae) strain lacking the native acc1 gene with either a wt or mutated form of a chimeric plastidal ACCase gene from a plant such as rice (Oryza sativa). Methods to introduce one or more mutations listed herein into the chimeric ACCase gene and subsequently complement the acc1 lacking yeast strain are well known by an individual skilled in the art. In the art assays are known for measuring tolerance of a mutated plant ACCase gene versus a herbicide that is a member of the aryloxyphenoxypropanoate, cyclohexanedione, and/or phenylpyrazoline families of herbicides such as clethodim, sethoxydim, fluazifop, haloxyfop, quizalofop, and pinoxaden (Joachimiak M. et al Proc Natl Acad Sci U.S.A. 1997 Sep. 2; 94 (18): 9990-5 and WO/2013/074524).
A library of random mutations in the rice (Oryza sativa) plastidal ACCase gene was generated and screened for clethodim tolerant clones using a yeast complementation assay.

[2] = system: O. sativa ACCase; test: Growth of Saccharomyces cerevisiae pseudodiploid acc1Δ strains carrying wild-type or mutant OsACCase plasmids, streaked onto plates with increasing concentrations of clethodim (Examples 5, 7, 10; Tables 8, 12); type: cell-based, Oryza sativa; design: key to growth, 0 mM clethodim / growth, 0.025 mM clethodim / growth, 0.1 mM clethodim / growth, 0.25 mM clethodim / growth, 0.5 mM clethodim / growth, 1 mM clethodim: ++ = Strong growth; + = Poor growth; − = No growth; key to relative growth phenotype, 0.5 mM clethodim / relative growth phenotype, 1 mM clethodim / relative growth phenotype, 2 mM clethodim / relative growth phenotype, highGal / relative growth phenotype, lowGal / relative growth phenotype, 0.05 mM clethodim / relative growth phenotype, 0.1 mM clethodim / relative growth phenotype, 0.25 mM clethodim: +++ high growth; ++ moderate growth; + low to negligible growth; (−) some cell debris, no growth; − no growth or cell debris; details: for relative growth phenotype, 0.05 mM clethodim: plate with 0.05 mM clethodim; for relative growth phenotype, 0.05 mM clethodim / relative growth phenotype, 0.1 mM clethodim / relative growth phenotype, 0.25 mM clethodim / relative growth phenotype, 0.5 mM clethodim / relative growth phenotype, 1 mM clethodim / relative growth phenotype, 2 mM clethodim / growth, 0 mM clethodim / growth, 0.025 mM clethodim / growth, 0.1 mM clethodim / growth, 0.25 mM clethodim / growth, 0.5 mM clethodim / growth, 1 mM clethodim: galactose 0.01%; for relative growth phenotype, 0.1 mM clethodim / growth, 0.1 mM clethodim: plate with 0.1 mM clethodim; for relative growth phenotype, 0.25 mM clethodim / growth, 0.25 mM clethodim: plate with 0.25 mM clethodim; for relative growth phenotype, 0.5 mM clethodim / growth, 0.5 mM clethodim: plate with 0.5 mM clethodim; for relative growth phenotype, 1 mM clethodim / growth, 1 mM clethodim: plate with 1 mM clethodim; for relative growth phenotype, 2 mM clethodim: plate with 2 mM clethodim; for relative growth phenotype, highGal / relative growth phenotype, lowGal: yeast acc1Δ strain with OsACCase plasmid, no clethodim; for relative growth phenotype, highGal: high galactose plate; for relative growth phenotype, lowGal: low galactose plate; for clethodim tolerance compared to the wild-type (wt) control strain: Example 5; for growth, 0 mM clethodim / growth, 0.025 mM clethodim / growth, 0.1 mM clethodim / growth, 0.25 mM clethodim / growth, 0.5 mM clethodim / growth, 1 mM clethodim: Table 12; for growth, 0 mM clethodim: plate with 0 mM clethodim; for growth, 0.025 mM clethodim: plate with 0.025 mM clethodim
Description: Mutations at position N2097S and V2098A were combined to determine if point mutations at both positions gave increased resistance compared to either single point mutation. Each of these respective mutations (N2097S, V2098A and N2097S/V2098A) were generated by standard methods and introduced into a Saccharomyces cerevisiae pseudodiploid acc1Δ strain with a plasmid containing wild-type O. sativa ACCase gene. Once each of these mutations were introduced by recombination mediated mutagenesis, the OsACCase wild-type plasmid was removed, and mutation strains were confirmed by sequencing. The three strains, along with a series of controls including a WT strain (negative control), an I1781L mutant strain, and a D2078G mutant strain (positive control), were streaked onto plates with increasing concentrations of clethodim. […] These observations argue that N2097S is an enhancer of V2098A tolerance.
Edits at position S1784N and A1785G were combined to determine if point mutations at both of these two positions gave increased resistance compared to either single point mutation. Each of these respective mutations (S1784N, A1785G and S1784N/A1785G) were generated by standard methods and introduced into a Saccharomyces cerevisiae pseudodiploid acc1Δ strain with a plasmid containing wild-type O. sativa ACCase gene. Once each of these mutations were introduced by recombination mediated mutagenesis, the OsACCase wild-type plasmid was removed, and mutation strains were confirmed by sequencing. The three strains, along with a series of controls including a WT strain (negative control), an I1781L mutant strain, a D2078G mutant strain (positive control), and a V2075L mutant strain were streaked onto plates with increasing concentrations of clethodim.
Each of these respective mutations (D2078G, P2083T, D2078G/P2083T) were generated by standard methods and introduced into a Saccharomyces cerevisiae pseudodiploid acc14 strain with a plasmid containing the wild-type O. sativa ACCase gene. Once plasmids bearing each of these mutations, introduced using recombination-mediated mutagenesis, the OsACCase wild-type plasmid was removed, and strains bearing each mutant plasmid were confirmed by sequencing. The three strains, along with a series of controls including a wild-type strain (negative control), an I1781L mutant strain (medium control), and a pre-existing D2078G mutant strain (positive control) were streaked onto plates with increasing concentrations of clethodim.

[3] = plates with increasing clethodim, 0.01% galactose
[4] = Example 10, highest concentration tested 1 mM, 0.01% galactose

relative growth phenotype, 0.05 mM clethodim [2]: (−) | relative growth phenotype, 0.1 mM clethodim [2]: (−) | relative growth phenotype, 0.25 mM clethodim [2]: − | relative growth phenotype, 0.5 mM clethodim [2]: − | relative growth phenotype, 1 mM clethodim [2]: − | relative growth phenotype, 2 mM clethodim [2]: − | relative growth phenotype, highGal [2]: +++ | relative growth phenotype, lowGal [2]: +++
Substance: A1785G: mutated ACCase, numbering per SEQ ID NO: 2
clethodim tolerance [1]: no detectable clethodim tolerance

Substance: C2088M: mutated ACCase, numbering per SEQ ID NO: 2
clethodim tolerance [1]: produces measurable tolerance

Substance: D1681E: mutated ACCase, numbering per SEQ ID NO: 2
clethodim tolerance [1]: measurable clethodim tolerance

Substance: D1681G: mutated ACCase, numbering per SEQ ID NO: 2
clethodim tolerance [1]: measurable clethodim tolerance

Substance: D2078G/N2097S: double mutant ACCase
clethodim tolerance of combined mutations compared with single mutation(s) or parent mutant [1]: either less, or no more, tolerant than the single D2078G, V2075L and V2098A mutations

clethodim concentrations on which the strain grew poorly [2, 4]: up to 0.25 mM | clethodim concentrations on which the strain grew well [2, 4]: up to 0.1 mM | growth, 0 mM clethodim [2]: ++ | growth, 0.025 mM clethodim [2]: ++ | growth, 0.1 mM clethodim [2]: ++ | growth, 0.25 mM clethodim [2]: + | growth, 0.5 mM clethodim [2]: − | growth, 1 mM clethodim [2]: − | relative growth phenotype, 0.05 mM clethodim [2]: +++ | relative growth phenotype, 0.1 mM clethodim [2]: +++ | relative growth phenotype, 0.25 mM clethodim [2]: ++ | relative growth phenotype, 0.5 mM clethodim [2]: (−) | relative growth phenotype, 1 mM clethodim [2]: (−) | relative growth phenotype, 2 mM clethodim [2]: (−) | growth on clethodim plates (in words) [2, 3]: consistent with moderate resistance | relative growth phenotype, highGal [2]: +++ | relative growth phenotype, lowGal [2]: +++
Substance: I1781L: mutated ACCase, numbering per SEQ ID NO: 2; moderate-resistance control
clethodim tolerance [1]: produces tolerance | clethodim tolerance compared to the wild-type (wt) control strain [2, 3]: did produce tolerance

Substance: L1543F-D1681E: double mutant ACCase
clethodim tolerance of combined mutations compared with single mutation(s) or parent mutant [1]: increased clethodim tolerance compared to any one mutation alone

Substance: L1543F-D1681G: double mutant ACCase
clethodim tolerance of combined mutations compared with single mutation(s) or parent mutant [1]: increased clethodim tolerance compared to any one mutation alone

Substance: L1543F: mutated ACCase, numbering per SEQ ID NO: 2
clethodim tolerance [1]: measurable clethodim tolerance

Substance: L1543V-D1681E: double mutant ACCase
clethodim tolerance of combined mutations compared with single mutation(s) or parent mutant [1]: increased clethodim tolerance compared to any one mutation alone

Substance: L1543V-D1681G: double mutant ACCase
clethodim tolerance of combined mutations compared with single mutation(s) or parent mutant [1]: increased clethodim tolerance compared to any one mutation alone

Substance: L1543V: mutated ACCase, numbering per SEQ ID NO: 2
clethodim tolerance [1]: measurable clethodim tolerance

Substance: L1818H: mutated ACCase, numbering per SEQ ID NO: 2
clethodim tolerance [1]: measurable clethodim tolerance

Substance: L1818I: mutated ACCase, numbering per SEQ ID NO: 2
clethodim tolerance [1]: measurable clethodim tolerance

Substance: M1974T-D2078G: double mutant ACCase
clethodim tolerance of combined mutations compared with single mutation(s) or parent mutant [1]: tolerance that is similar to the corresponding original triple mutants

Substance: M1974T: mutated ACCase, numbering per SEQ ID NO: 2
clethodim tolerance [1]: neither R1672I nor M1974T alone provide measurable tolerance | effect on clethodim tolerance of the single D2078G mutation [1]: increase tolerance of the single D2078G mutation

Substance: M1975T: mutated ACCase, numbering per SEQ ID NO: 2
effect on clethodim tolerance of the single D2078G mutation [1]: neither M1975T nor M2257I provide detectable clethodim tolerance increase to the single D2078G mutation

Substance: N2097S/V2098A: double mutant ACCase
tolerance/resistance of double mutant compared with single mutation(s) [2, 3]: notably increased compared to the V2098A change alone

Substance: N2097S: mutated ACCase, numbering per SEQ ID NO: 2
clethodim tolerance [1]: neither the N2097S nor the N2097D single mutations provide detectable clethodim tolerance | effect on clethodim tolerance when combined with D2078G, V2075L or V2098A ([1]; combined with either D2078G, V2075L or V2098A): further increases clethodim tolerance | clethodim tolerance compared to the wild-type (wt) control strain [2, 3]: does not produce detectable clethodim tolerance

growth, 0 mM clethodim [2]: ++ | growth, 0.025 mM clethodim [2]: − | growth, 0.1 mM clethodim [2]: − | growth, 0.25 mM clethodim [2]: − | growth, 0.5 mM clethodim [2]: − | growth, 1 mM clethodim [2]: −
Substance: P2083T: mutated ACCase, numbering per SEQ ID NO: 2
growth on clethodim plates (in words) [2, 3]: unable to grow on all concentrations of clethodim tested

Substance: R1672I-D2078G: double mutant ACCase
clethodim tolerance of combined mutations compared with single mutation(s) or parent mutant [1]: tolerance that is similar to the corresponding original triple mutants

Substance: R1672I/M1975T/D2078G: triple mutant ACCase clone
clethodim tolerance of combined mutations compared with single mutation(s) or parent mutant [1]: increased clethodim tolerance compared to the single D2078G mutation

Substance: R1672I: mutated ACCase, numbering per SEQ ID NO: 2
clethodim tolerance [1]: neither R1672I nor M1974T alone provide measurable tolerance | effect on clethodim tolerance of the single D2078G mutation [1]: increase tolerance of the single D2078G mutation

Substance: S1784G: mutated ACCase, numbering per SEQ ID NO: 2
clethodim tolerance [1]: measurable clethodim tolerance

Substance: S1784N plus L1818H: double mutant ACCase
clethodim tolerance of combined mutations compared with single mutation(s) or parent mutant [1]: improves tolerance in comparison to either single mutation

clethodim concentrations on which the strain grew ([2]; Example 7, plates with increasing clethodim, 0.01% galactose): up to 1 mM | relative growth phenotype, 0.05 mM clethodim [2]: +++ | relative growth phenotype, 0.1 mM clethodim [2]: +++ | relative growth phenotype, 0.25 mM clethodim [2]: +++ | relative growth phenotype, 0.5 mM clethodim [2]: +++ | relative growth phenotype, 1 mM clethodim [2]: + | relative growth phenotype, 2 mM clethodim [2]: (−) | relative growth phenotype, highGal [2]: +++ | relative growth phenotype, lowGal [2]: +++
Substance: S1784N/A1785G: double mutant ACCase
tolerance/resistance of double mutant compared with single mutation(s) [2, 3]: superior in terms of resistance to either individual mutation

Substance: V2075L/N2097D: double mutant ACCase
clethodim tolerance of combined mutations compared with single mutation(s) or parent mutant [1]: either less, or no more, tolerant than the single D2078G, V2075L and V2098A mutations

Substance: V2098A/N2097D: double mutant ACCase
clethodim tolerance of combined mutations compared with single mutation(s) or parent mutant [1]: either less, or no more, tolerant than the single D2078G, V2075L and V2098A mutations
